This note sets out measurements from patent US20060263802A1 (priority 2003, published 2006).

What all share (assay type): binding
The test system of experiment [1] is human monoclonal antibody CR57.
Experiment [2] concerns human monoclonal antibody CR57. This is another data set of the same source.
In experiment [3] the test system is human monoclonal antibody CRJA.
In experiment [4] the test system is human monoclonal antibody CRJB.
Experiment [5] relates to human monoclonal antibody CRJB. This is another data set of the same source.
Experiment [6] concerns human monoclonal antibody CRJA. This is another data set of the same source.

Turning to YILAIKMNGFTCTGV, the “Binding of CR57 (10 μg/ml) to looped/cyclic peptide (PEPSCAN-ELISA signal)” value in experiment [1] worked out at 55. The “Binding of CR57 to linear peptide (PEPSCAN-ELISA signal)” value (“Binding of CR57 to linear peptide” for short) in experiment [2] came to 47. In experiment [3], the “Binding of CRJA (10 μg/ml) to looped/cyclic peptide (PEPSCAN-ELISA signal)” value is on record as 45. Further, the “Binding of CRJB to linear peptide (PEPSCAN-ELISA signal)” value (“Binding of CRJB to linear peptide” below) in experiment [4] is recorded as 107. Also, the “Binding of CRJB (10 μg/ml) to looped/cyclic peptide (PEPSCAN-ELISA signal)” value in experiment [5] was determined as 49. In experiment [6], the “Binding of CRJA to linear peptide (PEPSCAN-ELISA signal)” value (shortened to “Binding of CRJA to linear peptide”) was found to be 45.

With DGDEAEDFVEVHLPD, in experiment [1], the “Binding of CR57 to looped/cyclic peptide (PEPSCAN-ELISA signal)” value is 71. Besides, the “Binding of human monoclonal antibody CR57 to linear peptide (PEPSCAN-ELISA signal)” value in experiment [2] was found to be 85. Also, the “Binding of CRJA to looped/cyclic peptide (PEPSCAN-ELISA signal)” value in experiment [3] is listed as 71. Besides, the “Binding of human monoclonal antibody CRJB to linear peptide (PEPSCAN-ELISA signal)” value in experiment [4] amounted to 123. Besides, the “Binding of CRJB to looped/cyclic peptide (PEPSCAN-ELISA signal)” value in experiment [5] is on record as 102. Further, in experiment [6], the “Binding of human monoclonal antibody CRJA to linear peptide (PEPSCAN-ELISA signal)” value is on record as 97.

On to AEDFVEVHLPDVHNQ, for which the “Binding of CR57 to looped/cyclic peptide (PEPSCAN-ELISA signal)” value in experiment [1] came out at 117. Further, the “Binding of human monoclonal antibody CR57 to linear peptide (PEPSCAN-ELISA signal)” value in experiment [2] is 123. Moreover, the “Binding of CRJA to looped/cyclic peptide (PEPSCAN-ELISA signal)” value in experiment [3] is 101. Further, in experiment [4], the “Binding of human monoclonal antibody CRJB to linear peptide (PEPSCAN-ELISA signal)” value was 138. Moreover, the “Binding of CRJB to looped/cyclic peptide (PEPSCAN-ELISA signal)” value in experiment [5] turned out to be 90. For the same sequence, the “Binding of human monoclonal antibody CRJA to linear peptide (PEPSCAN-ELISA signal)” value in experiment [6] was found to be 114.

Take GPDGNVLIPEMQSSL: the “Binding of CR57 (10 μg/ml) to looped/cyclic peptide (PEPSCAN-ELISA)” value in experiment [1] was 141. Further, in experiment [2], the “Binding of CR57 to linear peptide” value was found to be 86. In experiment [3], the “Binding of CRJA (10 μg/ml) to looped/cyclic peptide (PEPSCAN-ELISA)” value turned out to be 112. Besides, the “Binding of CRJB to linear peptide” value in experiment [4] came out at 154. Moreover, the “Binding of CRJB (10 μg/ml) to looped/cyclic peptide (PEPSCAN-ELISA)” value in experiment [5] is reported as 100. The “Binding of CRJA to linear peptide” value in experiment [6] was determined as 91.

For the sequence AGDPRYEESLHNPYP, the “Binding of CR57 (10 μg/ml) to looped/cyclic peptide (PEPSCAN-ELISA signal)” value in experiment [1] came out at 64. In addition, the “Binding of CR57 to linear peptide” value in experiment [2] was found to be 40. The “Binding of CRJA (10 μg/ml) to looped/cyclic peptide (PEPSCAN-ELISA signal)” value in experiment [3] stood at 58. In experiment [4], the “Binding of CRJB to linear peptide” value is given as 101. For the same sequence, the “Binding of CRJB (10 μg/ml) to looped/cyclic peptide (PEPSCAN-ELISA signal)” value in experiment [5] worked out at 54. The “Binding of CRJA to linear peptide” value in experiment [6] is given as 83.

With YKSLKGACKLKLCGV, in experiment [1], the “Binding of CR57 (10 μg/ml) to looped/cyclic peptide (PEPSCAN-ELISA)” value amounted to 96. Moreover, in experiment [2], the “Binding of CR57 to linear peptide” value amounted to 80. Besides, in experiment [3], the “Binding of CRJA (10 μg/ml) to looped/cyclic peptide (PEPSCAN-ELISA)” value was found to be 71. Besides, the “Binding of CRJB to linear peptide” value in experiment [4] came out at 112. For the same sequence, the “Binding of CRJB (10 μg/ml) to looped/cyclic peptide (PEPSCAN-ELISA)” value in experiment [5] was found to be 82. Moreover, the “Binding of CRJA to linear peptide” value in experiment [6] came out at 79.

Turning to PYDRSLHSRVFPSGK, the “Binding of CR57 (10 μg/ml) to looped/cyclic peptide (PEPSCAN-ELISA signal)” value in experiment [1] was 134. In addition, the “Binding of CR57 to linear peptide” value in experiment [2] is reported as 86. Also, in experiment [3], the “Binding of CRJA (10 μg/ml) to looped/cyclic peptide (PEPSCAN-ELISA signal)” value was 113. Also, in experiment [4], the “Binding of CRJB to linear peptide” value is 120. Moreover, the “Binding of CRJB (10 μg/ml) to looped/cyclic peptide (PEPSCAN-ELISA signal)” value in experiment [5] is 90. Further, the “Binding of CRJA to linear peptide” value in experiment [6] is 104.

With DFRSDEIEHLVVEEL, in experiment [1], the “Binding of CR57 (10 μg/ml) to looped/cyclic peptide (PEPSCAN-ELISA)” value is listed as 127. Besides, the “Binding of CR57 to linear peptide” value in experiment [2] was 99. For the same sequence, the “Binding of CRJA (10 μg/ml) to looped/cyclic peptide (PEPSCAN-ELISA)” value in experiment [3] is reported as 93. Further, the “Binding of CRJB to linear peptide” value in experiment [4] was found to be 103. The “Binding of CRJB (10 μg/ml) to looped/cyclic peptide (PEPSCAN-ELISA)” value in experiment [5] turned out to be 58. Moreover, the “Binding of CRJA to linear peptide” value in experiment [6] is given as 86.

On to ECLDALESIMTTKSV, for which the “Binding of CR57 (10 μg/ml) to looped/cyclic peptide (PEPSCAN-ELISA)” value in experiment [1] was found to be 96. Also, the “Binding of CR57 to linear peptide” value in experiment [2] came out at 91. In experiment [3], the “Binding of CRJA (10 μg/ml) to looped/cyclic peptide (PEPSCAN-ELISA)” value is 110. In experiment [4], the “Binding of CRJB to linear peptide” value came out at 112. Besides, in experiment [5], the “Binding of CRJB (10 μg/ml) to looped/cyclic peptide (PEPSCAN-ELISA)” value was 90. The “Binding of CRJA to linear peptide” value in experiment [6] is 103.

Take SPSVADLDPYDRSLH: in experiment [1], the “Binding of CR57 (10 μg/ml) to looped/cyclic peptide (PEPSCAN-ELISA signal)” value is given as 76. Further, the “Binding of CR57 to linear peptide” value in experiment [2] came to 59. Further, in experiment [3], the “Binding of CRJA (10 μg/ml) to looped/cyclic peptide (PEPSCAN-ELISA signal)” value came to 51. Further, the “Binding of CRJB to linear peptide” value in experiment [4] was 114. Also, the “Binding of CRJB (10 μg/ml) to looped/cyclic peptide (PEPSCAN-ELISA signal)” value in experiment [5] stood at 63. The “Binding of CRJA to linear peptide” value in experiment [6] stood at 72.

For RTVKTTKESLVIISP, the “Binding of CR57 (10 μg/ml) to looped/cyclic peptide (PEPSCAN-ELISA signal)” value in experiment [1] stood at 88. The “Binding of CR57 to linear peptide” value in experiment [2] is given as 82. The “Binding of CRJA (10 μg/ml) to looped/cyclic peptide (PEPSCAN-ELISA signal)” value in experiment [3] stood at 88. In addition, the “Binding of CRJB to linear peptide” value in experiment [4] came out at 120. In addition, the “Binding of CRJB (10 μg/ml) to looped/cyclic peptide (PEPSCAN-ELISA signal)” value in experiment [5] was 69. The “Binding of CRJA to linear peptide” value in experiment [6] is 103.

On to EMQSSLLQQHMELLE, for which the “Binding of CR57 (10 μg/ml) to looped/cyclic peptide (PEPSCAN-ELISA)” value in experiment [1] worked out at 78. For the same sequence, the “Binding of CR57 to linear peptide” value in experiment [2] turned out to be 58. Also, in experiment [3], the “Binding of CRJA (10 μg/ml) to looped/cyclic peptide (PEPSCAN-ELISA)” value was determined as 88. Moreover, the “Binding of CRJB to linear peptide” value in experiment [4] turned out to be 129. Moreover, the “Binding of CRJB (10 μg/ml) to looped/cyclic peptide (PEPSCAN-ELISA)” value in experiment [5] is reported as 98. For the same sequence, in experiment [6], the “Binding of CRJA to linear peptide” value is listed as 94.

For DGNVLIPEMQSSLLQ, the “Binding of CR57 (10 μg/ml) to looped/cyclic peptide (PEPSCAN-ELISA)” value in experiment [1] worked out at 114. Also, the “Binding of CR57 to linear peptide” value in experiment [2] was 123. Also, in experiment [3], the “Binding of CRJA (10 μg/ml) to looped/cyclic peptide (PEPSCAN-ELISA)” value is reported as 107. Further, the “Binding of CRJB to linear peptide” value in experiment [4] was 134. The “Binding of CRJB (10 μg/ml) to looped/cyclic peptide (PEPSCAN-ELISA)” value in experiment [5] was determined as 104. Further, the “Binding of CRJA to linear peptide” value in experiment [6] came out at 93.

On to AYTIFNKTLMEADAH, for which, in experiment [1], the “Binding of CR57 (10 μg/ml) to looped/cyclic peptide (PEPSCAN-ELISA)” value worked out at 118. In experiment [2], the “Binding of CR57 to linear peptide” value is 86. Also, the “Binding of CRJA (10 μg/ml) to looped/cyclic peptide (PEPSCAN-ELISA)” value in experiment [3] stood at 97. Further, the “Binding of CRJB to linear peptide” value in experiment [4] is 121. In addition, the “Binding of CRJB (10 μg/ml) to looped/cyclic peptide (PEPSCAN-ELISA)” value in experiment [5] is on record as 78. In experiment [6], the “Binding of CRJA to linear peptide” value is recorded as 98.

With DGTWVAMQTSNETKW, the “Binding of CR57 (10 μg/ml) to looped/cyclic peptide (PEPSCAN-ELISA)” value in experiment [1] was 56. Moreover, in experiment [2], the “Binding of CR57 to linear peptide” value is 69. For the same sequence, the “Binding of CRJA (10 μg/ml) to looped/cyclic peptide (PEPSCAN-ELISA)” value in experiment [3] came to 45. Moreover, the “Binding of CRJB to linear peptide” value in experiment [4] worked out at 114. Further, the “Binding of CRJB (10 μg/ml) to looped/cyclic peptide (PEPSCAN-ELISA)” value in experiment [5] was found to be 58. The “Binding of CRJA to linear peptide” value in experiment [6] came out at 63.

As to GTWVAMQTSNETKWC, the “Binding of CR57 (10 μg/ml) to looped/cyclic peptide (PEPSCAN-ELISA)” value in experiment [1] stood at 71. Besides, in experiment [2], the “Binding of CR57 to linear peptide” value was 58. In experiment [3], the “Binding of CRJA (10 μg/ml) to looped/cyclic peptide (PEPSCAN-ELISA)” value is 62. Further, the “Binding of CRJB to linear peptide” value in experiment [4] is 113. The “Binding of CRJB (10 μg/ml) to looped/cyclic peptide (PEPSCAN-ELISA)” value in experiment [5] amounted to 85. The “Binding of CRJA to linear peptide” value in experiment [6] turned out to be 61.

Turning to SLHSRVFPSGKCSGV, the “Binding of CR57 (10 μg/ml) to looped/cyclic peptide (PEPSCAN-ELISA signal)” value in experiment [1] was determined as 115. In addition, the “Binding of CR57 to linear peptide” value in experiment [2] is recorded as 69. Also, in experiment [3], the “Binding of CRJA (10 μg/ml) to looped/cyclic peptide (PEPSCAN-ELISA signal)” value was 97. The “Binding of CRJB to linear peptide” value in experiment [4] was found to be 111. The “Binding of CRJB (10 μg/ml) to looped/cyclic peptide (PEPSCAN-ELISA signal)” value in experiment [5] is reported as 86. For the same sequence, the “Binding of CRJA to linear peptide” value in experiment [6] came out at 96.

For the sequence DAHYKSVRTWNEILP, the “Binding of CR57 (10 μg/ml) to looped/cyclic peptide (PEPSCAN-ELISA)” value in experiment [1] came out at 90. Besides, in experiment [2], the “Binding of CR57 to linear peptide” value is given as 59. Besides, the “Binding of CRJA (10 μg/ml) to looped/cyclic peptide (PEPSCAN-ELISA)” value in experiment [3] is 98. Further, in experiment [4], the “Binding of CRJB to linear peptide” value is reported as 121. For the same sequence, the “Binding of CRJB (10 μg/ml) to looped/cyclic peptide (PEPSCAN-ELISA)” value in experiment [5] is on record as 100. Besides, the “Binding of CRJA to linear peptide” value in experiment [6] came out at 107.
